Measurements: US6727240B1, “Methods for preventing HIV-1 or HIV-2 infection” (New York Blood Center, Inc., priority 1993, dated 2004)

Tests used:
MT-2 cells = assay: Cytotoxic effect in the absence of HIV-1 (lysis of uninfected cells); format: cell-based
[1] = test system: deletion mutant of gp120 lacking the V3 loop sequence; assay: Binding of CD4-binding-site mAbs to gp120 deletion mutant; design: species or system HIV-1
[2] = target: T1, CD4 binding site of gp120 (recombinant gp120) (Human immunodeficiency virus type 1 group M subtype B, UniProt P03375); assay: ELISA: binding of mAb 588D to gp120-coated wells; design: species or system HIV-1; conditions: mAb 588D 200 ng/well; FIG. 3
T1 construct: recombinant gp120 produced insect cells infected with a baculovirus vector; host or cells: insect cells infected with a baculovirus vector
Protocol: (§1) The inhibitory effect of PTP-IX and its metal derivatives on binding to gp120 of monoclonal antibodies (mAbs) specific for the V3 loop or for the CD4 binding site was measured by ELISA tests using as second antibodies horseradish peroxidase (HRP) labeled anti-mouse IgG.
The inhibitory effect of Sn-PTP-IX on the reaction between gp120 and mAb specific for the CD4 binding site on gp120 was also investigated. For this purpose, mAb 588D (obtained from the AIDS Research and Reagent Reference Program and from Dr. S. Zolla-Pazner of New York Veterans Affairs Medical Center) was used.
(§2) The inhibitory effect of PTP-IX and its metal complexes on the reaction between antibodies of distinct specificities and gp120 (or synthetic peptides derived from it) was calculated by the following formula: [formula]

[3] = test system: V3 hypervariable loop peptides from gp120 from 21 distinct HIV-1 isolates; assay: ELISA: reaction of V3 hypervariable loop peptides with homologous anti-peptide antisera; format: binding; conditions: rabbit antisera diluted 1:1,000; FIG. 2
Protocol: as §1
Sn-PTP-IX was also tested for inhibition of the reaction between V3 hypervariable loop peptides from 21 distinct HIV-1 isolates and the corresponding homologous antipeptide antibodies. […] With respect of FIG. 2, peptide coated wells of polystyrene plates were reacted in the presence and absence of the porphyrin derivative with the respective rabbit antisera diluted 1:1,000, and the attachment of rabbit IgG was subsequently determined using horseradish peroxidase labeled anti-rabbit IgG.
as §2

[4] = versus Sn-PTP-IX; cited from earlier work

Compound | S.I. = selectivity index = CD50/ED50 (toxicity/activity) (HIV-1) | CD50 = concentration at which 50% of uninfected cells were lysed (MT-2 cells) [µg/mL] | other results
C=Cc1c(C)c2cc3[nH]c(cc4nc(cc5nc(cc1[nH]2)C(C)=C5CCC(=O)[O-])C(CCC(=O)[O-])=C4C)c(C)c3C=C.[Co+2] [Co-Protoporphyrin IX] | >6.2 |  | 
C=CC1=C(C)c2cc3[n-]c(cc4[n-]c(cc5nc(cc1n2)C(C)=C5C=C)c(C)c4CCC(=O)O)c(CCC(=O)O)c3C.[Mn+2] [Mn-Protoporphyrin IX] | >2.8 | >80 | 
C=CC1=C(C)c2cc3[nH]c(cc4nc(cc5[nH]c(cc1n2)c(C)c5CCC(=O)O)C(CCC(=O)O)=C4C)c(C)c3C=C [Protoporphyrin IX] | 7.3 |  | 
C=Cc1c2[n-]c(c1C)/C=c1\[n-]/c(c(C)c1C=C)=C\c1[n-]c(c(CCC(=O)O)c1C)C=c1[n-]/c(c(C)c1CCC(=O)O)=C\2.[Sn+4] [Sn-Protoporphyrin IX, tin protoporphyrin IX] | 33.5 | 18.0 | Inhibition of HIV-1 infection (in words) (HIV-1; compared with metal-free PTP-IX): effectively inhibited HIV-1 infection at considerably lower concentrations than did metal-free PTP-IX; Inhibition of binding of CD4-binding-site mAbs to gp120 lacking the V3 loop [1]: not observed; Inhibition of binding of mAb 588D to gp120 [2]: blocked in a concentration dependent manner; Inhibition of the reaction between V3 loop peptides and homologous antibodies [3]: inhibited
C=CC1=C(C)c2cc3[n-]c(cc4[n-]c(cc5nc(cc1n2)C(C)=C5C=C)c(C)c4CCC(=O)O)c(CCC(=O)O)c3C.[Zn+2] [Zn-Protoporphyrin IX] | >3.1 |  | ED50 values relative to Sn-PTP-IX (times higher) [4]: approximately 50 times
tin mesoporphyrin IX [Sn-Mesoporphyrin IX] | >5.6 | >20 | 
